The nature of data set [1]: Test of stability in human plasma. Particulars: pH 7.2.
Method: (§1) Human plasma was diluted two-fold with 50 mM sodium phosphate buffer (pH=7.2) for use as the test plasma solution. The test sample was made a DMSO solution of 1 mM concentration.
(§2) 198 μl of the above two-fold diluted plasma solution warmed to 37° C. was added to 2 μl of the test sample DMSO solution and the resultant mixture was stirred and incubated at 37° C. After 0, 5, and 15 minutes, 800 μl of acetonitrile was mixed with the test sample-plasma mixture to remove the protein, then a centrifugation operation (12,000 rpm, 1 minute) was carried out and the supernatant obtained. This was diluted two-fold with distilled water and measured for of the test sample by HPLC analysis.
(§3) For the rate of recovery from the plasma, the rates of recovery at different times were calculated based on a calibration line of the test sample in a DMSO standard solution. The half-life (t1/2) in plasma was calculated by exponential recurrence analysis from the rates of recovery of these different times.
A further data set concerns the target T1, Human heart chymase (Homo sapiens, UniProt P23946).
T1 construct: Human heart chymase was purified according to the method of Urata et al; from tissue; host or cells: human heart
T1 sequence (P23946 22-247): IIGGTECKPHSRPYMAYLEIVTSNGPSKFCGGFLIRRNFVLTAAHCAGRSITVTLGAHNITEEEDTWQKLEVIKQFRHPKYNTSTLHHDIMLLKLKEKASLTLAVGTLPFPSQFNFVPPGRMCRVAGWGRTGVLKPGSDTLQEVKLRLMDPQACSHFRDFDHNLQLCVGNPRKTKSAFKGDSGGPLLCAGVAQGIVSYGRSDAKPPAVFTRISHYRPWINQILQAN
Kind of data set: Measurement of chymase inhibitory activity. In kind it is biochemical. The settings on record: purified human heart chymase, substrate Suc-Ala-Ala-Pro-Phe-MCA, pH 7.5, 30° C., 10 min preincubation. How it is done: Human heart chymase was purified according to the method of Urata et al. (J. Biol. Chem., 1990, 265, 22348). The inhibitory activity of the quinazoline derivatives of the present invention with respect to chymase was measured in the following manner. That is, the purified enzyme solution was diluted to a suitable concentration with 0.1M tris-hydrochloride buffer (pH=7.5), 1M sodium chloride, and 0.01% TritonX-100 to In obtain an enzyme solution. A 10 mM dimethyl sulfoxide (hereinafter referred to as DMSO) solution of Suc-Ala-Ala-Pro-Phe-MCA (Peptide Institute) was diluted 20-fold at the time of use by 0.1M tris-hydrochlorate, 1M sodium chloride, and 0.01% TritonX-100 to obtain the substrate solution.
75 μl of the enzyme solution warmed to 30° C. was mixed with 5 μl of DMSO solution of the test sample. The mixture was preincubated at 30° C. for 10 minutes. Next, 20 μl of a substrate solution warmed to 30° C. was mixed with the test sample-enzyme mixture and incubated at 30° c. After 10 minutes, 50 μl of 30% acetic acid was added to stop the enzymatic reaction. The amount of the AMC produced was quantified using a fluorescent photometer. At the same time, a blind test was carried out by adding, instead of the test sample solution, 5 μl of DMSO and performing the same reaction. […]

The conditions of data set [2]: human, plasma, pH 7.2.
Method: as §1, §2, §3
Data set [3] concerns human chymase induced vascular permeability. As to the kind of experiment: Test of human chymase induced vascular permeability exacerbation reaction. In kind it is in vivo, Wister male rats. Particulars: 10 mg/kg orally, 30 minutes before intracutaneous human chymase (20 mU), rat back skin, Evans Blue. How it is done:
Wister male rats (body weight 200 to 220 g, Charles River Japan) were used. In the backs of the rats from which the hair had been shaved off, 100 μl (20 mU: 1U being amount of enzyme for producing 1 nmol of AMC in 1 minute from Suc-Ala-Ala-Pro-Phe-MCA at pH7.5 and 30° C.) of a solution of the human chymase enzyme solution purified in evaluation Example 1 diluted 100-fold by PBS (phosphate buffered saline) was injected intracutaneously, then immediately thereafter a 0.5% (w/w) Evans Blue solution was administered from the tail artery. After 30 minutes, the rats were sacrificed by draining their blood under anesthesia with ether and the amount of dye leaking out to the back skin was measured. The region of the skin where the dye leaked out was cut off and 1.0 ml of 1N KOH solution was added and the resultant mixture was allowed to stand at 37° C. overnight. Next, 4 ml of an acetone-0.6N phosphoric acid (13:5) mixture was added to extract the dye. The absorbance at 650 nm of the supernatant was measured. […]
Next, 10 mg/kg of the compound of Example 18 was orally administered. 30 minutes later, 100 μl (20 mU) of human chymase the same as the non-drug administered group was injected intracutaneously and the amount of dye leaked out similarly measured. The rate of suppression of the amount of dye leakage due to the compound was calculated according to the following calculation formula. […]

pIC50: −log10 of the molar value.

By half-life is commonly meant the time in which the quantity being followed falls by half. Low values mean rapid decline, high ones slow decline. In the case of `O=C(O)C1Oc2ccc(S(=O)(=O)n3c(=O)[nH]c4cc(Cl)ccc4c3=O)cc2NC1=O` (racemic) [Example 29, (±)-6-[(7-chloro-2,4(1H,3H)-quinazolinedion-3-yl)sulfonyl]-3-oxo-1,4-benzoxazine-2-carboxylic acid], the half-life at 10 µM in data set [1] is above 4 h. The compound `O=c1[nH]c2cc(Cl)ccc2c(=O)n1S(=O)(=O)c1cccc(O)c1` [Example 1, 7-chloro-3-(3-hydroxybenzenesulfonyl)-2,4(1H,3H)-quinazolinedione] came in with a half-life at 10 µM in data set [1] of 1.3 h. The compound `Nc1ccccc1S(=O)(=O)n1c(=O)[nH]c2cc(Cl)ccc2c1=O` [Example 2] had a half-life at 10 µM in data set [1] of 2.92 h.

As to `Nc1cc(S(=O)(=O)n2c(=O)[nH]c3cc(Cl)ccc3c2=O)ccc1Cl` [Example 8, 3-(3-amino-4-chlorobenzenesulfonyl)-7-chloro-2,4(1H,3H)-quinazolinedione], the half-life at 10 µM in data set [1] amounted to 0.483 h. The compound `Cc1ccc(S(=O)(=O)n2c(=O)[nH]c3cc(Cl)ccc3c2=O)cc1N` [Example 10, 3-(3-amino-4-methylbenzenesulfonyl)-7-chloro-2,4(1H,3H)-quinazolinedione] returned a half-life at 10 µM in data set [1] of 2.78 h. Compared with the last compound, the half-life at 10 µM is about 5.8-fold higher. In turn, `Nc1cccc(S(=O)(=O)n2c(=O)[nH]c3cc(Cl)ccc3c2=O)c1` [Example 12, 3-(3-aminobenzenesulfonyl)-7-chloro-2,4(1H,3H)-quinazolinedione] came in with a half-life at 10 µM in data set [1] of 4.15 h. The half-life at 10 µM values of the last two compounds are within 1.5-fold of each other. As usually defined, the pIC50 is the IC50 on a negative log10 scale, so that one unit is a factor of ten. A lower pIC50 goes with a large IC50. On Human heart chymase, `CC(C(=O)O)C(=O)Nc1cccc(S(=O)(=O)n2c(=O)[nH]c3cc(Cl)ccc3c2=O)c1` (centres unmarked) [Example 13, 2-{3-[(7-chloro-2,4(1H,3H)-quinazolinedion-3-yl)sulfonyl]phenylaminocarbonyl}propionic acid] showed a pIC50 of 6.52. In addition, the t1/2 in data set [2] amounted to 1.62 h.

As for `O=C([O-])c1ccc(S(=O)(=O)n2c(=O)[nH]c3cc(Cl)ccc3c2=O)cc1O.[Na+]` [Example 16, 4-[(7-chloro-2,4(1H,3H)-quinazolinedion-3-yl)sulfonyl]salicylic acid monosodium salt], the half-life at 10 µM in data set [1] is above 4 h. On to `Nc1cc(S(=O)(=O)n2c(=O)[nH]c3cc(Cl)ccc3c2=O)ccc1C(=O)O` [Example 17, 4-[(7-chloro-2,4(1H,3H)-quinazolinedion-3-yl)sulfonyl]anthranilic acid], for which the half-life at 10 µM in data set [1] stood at 4.33 h. For the compound `Nc1cc(S(=O)(=O)n2c(=O)[nH]c3cc(Cl)ccc3c2=O)ccc1C(=O)[O-].[Na+]` [Example 18, 4-[(7-chloro-2,4(1H,3H)-quinazolinedion-3-yl)sulfonyl]anthranilic acid monosodium salt], the half-life at 10 µM in data set [1] was found to be 1.72 h. Further, the “Rate of suppression of amount of leakage of dye” value in data set [3] was 64%.

As to `COc1ccc(S(=O)(=O)n2c(=O)[nH]c3cc(Cl)ccc3c2=O)cc1NC(C)=O` [Example 22, 3-(3-acetamide-4-methoxybenzenesulfonyl)-7-chloro-2,4(1H,3H)-quinazolinedione], the half-life at 10 µM in data set [1] came to 1.73 h. The compound `COc1ccc(S(=O)(=O)n2c(=O)[nH]c3cc(Cl)ccc3c2=O)cc1NS(C)(=O)=O` [Example 24, 7-chloro-3-(4-methoxy-3-methylsulfonylaminobenzenesulfonyl)-2,4(1H,3H)-quinazolinedione] came in with a half-life at 10 µM in data set [1] of 1.32 h.

`COc1ccc2c(=O)n(S(=O)(=O)c3ccc(C(=O)O)c(N)c3)c(=O)[nH]c2c1` [Example 27, 4-[(7-methoxy-2,4(1H,3H)-quinazolinedion-3-yl)sulfonyl]anthranilic acid] yielded a half-life at 10 µM in data set [1] of 4.38 h. As to `Nc1cc(S(=O)(=O)n2c(=O)[nH]c3ccc(Cl)cc3c2=O)ccc1C(=O)O` [Example 32, 4-[(6-chloro-2,4(1H,3H)-quinazolinedion-3-yl)sulfonyl]anthranilic acid], in data set [1], the half-life at 10 µM was 1.23 h. Same read-out and setting: in the case of `CS(=O)(=O)O.Nc1cccc(S(=O)(=O)n2c(=O)[nH]c3cc(Cl)ccc3c2=O)c1` [Example 34, 3-(3-aminobenzenesulfonyl)-7-chloro-2,4-(1H,3H)quinazolinedion methanesulfonic acid salt] it was 11.8 h.

Values taken from patent publication US6867214B1, “Quinazoline derivatives and pharmaceutical applications thereof” (Daiichi Suntory Pharma Co., Ltd., priority 1998, dated 2005).
